Assay [1] deals with T1, FLT3 (Homo sapiens, UniProt P36888).
T1 construct: truncated human FAK, RET, FLT3, JAK2, and LRRK2; purchased Carna Biosciences
T1 sequence (P36888 564-993 limits assumed): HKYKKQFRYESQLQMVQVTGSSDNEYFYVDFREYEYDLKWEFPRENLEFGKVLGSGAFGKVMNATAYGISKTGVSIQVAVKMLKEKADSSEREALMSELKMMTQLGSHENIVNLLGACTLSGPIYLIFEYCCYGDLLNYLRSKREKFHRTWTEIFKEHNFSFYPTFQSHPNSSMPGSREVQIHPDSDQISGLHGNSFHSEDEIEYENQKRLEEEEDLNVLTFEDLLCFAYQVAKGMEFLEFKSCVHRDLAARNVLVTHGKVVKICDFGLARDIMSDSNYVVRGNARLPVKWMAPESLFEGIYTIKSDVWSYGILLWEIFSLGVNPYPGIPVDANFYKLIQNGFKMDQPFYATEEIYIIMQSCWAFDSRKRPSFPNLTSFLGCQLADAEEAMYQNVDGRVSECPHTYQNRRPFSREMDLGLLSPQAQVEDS
Description: Kinase inhibition assay: FLT3. Format: biochemical.

Assay [2] concerns the target T2, RET (Homo sapiens, UniProt P07949).
T2 construct: truncated human FAK, RET, FLT3, JAK2, and LRRK2; purchased Carna Biosciences
T2 sequence (P07949 658-1114 limits assumed): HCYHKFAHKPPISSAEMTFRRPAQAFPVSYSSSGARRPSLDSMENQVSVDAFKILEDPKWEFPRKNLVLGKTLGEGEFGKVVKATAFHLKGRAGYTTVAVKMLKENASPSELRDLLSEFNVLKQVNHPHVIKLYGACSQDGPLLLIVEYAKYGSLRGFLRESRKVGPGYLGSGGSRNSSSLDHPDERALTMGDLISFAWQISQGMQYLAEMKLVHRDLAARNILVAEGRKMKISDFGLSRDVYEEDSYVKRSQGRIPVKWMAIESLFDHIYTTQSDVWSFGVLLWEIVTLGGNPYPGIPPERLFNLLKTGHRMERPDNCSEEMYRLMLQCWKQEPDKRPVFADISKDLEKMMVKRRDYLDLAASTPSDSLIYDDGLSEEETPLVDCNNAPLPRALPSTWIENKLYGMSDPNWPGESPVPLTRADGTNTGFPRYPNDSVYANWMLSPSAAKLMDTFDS
Description: Kinase inhibition assay: RET. In kind it is biochemical.

Assay [3] has as its target T3, SYK (Homo sapiens, UniProt P43405).
T3 construct: Purified full-length human SYK, ZAP70, PIM1, PYK2; purchased Carna Biosciences
Description: Kinase inhibition assay: SYK. In kind it is biochemical. To be noted: at 1 μM concentration.

Assay [4] deals with TNF-α release in THP-1 cells. Description: SYK independent TNF-α release assay (LPS stimulation). Format: cell-based. As to conditions: Homo sapiens, 18-hour incubation. The procedure: Compounds of the present invention are tested for their effects on TNF-α release in human acute monocytic leukimia cell line (THP-1) to illustrate potential efficacy at the cellular level. TNF-α is a cytokine involved in systemic inflammation and is a member of a group of cytokines that stimulate the acute phase reaction. The primary role of TNF-α is in the regulation of immune cells. TNF-α is known to induce apoptotic cell death and inflammation and to inhibit early tumorigenesis and viral replication. Dysregulation and, in particular, overproduction of TNF-α have been implicated in a variety of human diseases, autoimmune disease, inflammation, arthritis and cancer.
Production or release of TNF-α is controlled by type of stimulus to which the cell responds. SYK activity is involved in mediating TNF-α production. When stimulated by IgG, cells increase TNF-α production in a SYK dependent manner (i.e., the SYK dependent pathway). However, when stimulated by lipopolysaccharide (LPS), they produce TNF-α in a SYK independent manner.
For SYK independent TNF-α release assay (i.e., via lipopolysaccharide (LPS)-stimulation), THP-1 cells derived from human monocytic cells were obtained from the American Type Culture Collection (ATCC, Manassas, Va.). This cell line was maintained with an RPMI medium (GIBCO™) containing 10 fetal bovine serum (FBS, GIBCO™) and 0.05 mM 2-mercaptoethanol. The THP-1 cells were seeded at 1×10^5 cells/100 μL/well into 96-well culture plates, and treated with lipopolysaccharide (1 μg/ml), and serially diluted compound was then added. After an 18-hour incubation period at 37° C., supernatants were collected for the determination of the TNF-α level by ELISA, and the remaining cells were subjected to an MTT assay to determine the cytotoxic effects.

As a reminder, the IC50 is the midpoint of a concentration-inhibition curve. A low value points to greater potency. One may read the inhibition as the percentage by which the read-out fell short of the control. Low values mean a response near the control, high ones a response far below the control.

SMILES strings stand for the structures.

With `COc1cc(Nc2ncc(C)c(-n3cc(C)c(CO)c3)n2)cc(OC)c1OC` [Compound 21, (4-methyl-1-(5-methyl-2-(3,4,5-trimethoxyphenylamino)pyrimidin-4-yl)-1H-pyrrol-3-yl)methanol], the IC50 in assay [1] was determined as 1.9 nM; in assay [2], 50 nM. Moreover, in assay [3], the inhibition at 1 µM turned out to be 96.4%.
In assay [4] (0.3 μM), `Cc1cc(C)cc(Nc2ncc(F)c(-n3cc(C)c(CN4CC[C@@H](O)C4)c3)n2)c1` [Compound 82, (R)-1-((1-(2-(3,5-dimethylphenyl-amino)-5-fluoropyrimidin-4-yl)-4-methyl-1H-pyrrol-3-yl)methyl) pyrrolidin-3-ol] registered an inhibition at 0.3 µM of 18.1%. Besides, the inhibition at 1 µM in assay [4] (1 μM) was 21.5%.

Source of the values: US8629132B2, “Kinase inhibitors” (Genosco, priority 2009, dated 2014).
